Test results as given in patent US9486506B2 (Novo Nordisk A/S, priority 2011, dated 2016).
Numbered stars: 1 amine (or outer) side, 2 acyl side, 3 side chain; on linkers, the order of the positions; unused ones are H or OH. Side chains are listed from the residue outwards. Peptide text beside a SMILES is read from it. * marks the point of attachment. C20 diacid = O=C(O)CCCCCCCCCCCCCCCCCCC(=O)*; C18 diacid = O=C(O)CCCCCCCCCCCCCCCCC(=O)*; C16 diacid = O=C(O)CCCCCCCCCCCCCCC(=O)*; γGlu = O=C(O)[C@H](CCC(=O)[*:2])N[*:1]; AEEA = NCCOCCOCC(=O)O

The molecules below were run against T1, glucagon receptor (Homo sapiens, UniProt P47871) (assay: Assay (I) Glucagon activity (cAMP biosensor, FLIPR)).
T1 construct: expressed in transfected cells
Type: cell-based

T1 sequence (P47871 26-477): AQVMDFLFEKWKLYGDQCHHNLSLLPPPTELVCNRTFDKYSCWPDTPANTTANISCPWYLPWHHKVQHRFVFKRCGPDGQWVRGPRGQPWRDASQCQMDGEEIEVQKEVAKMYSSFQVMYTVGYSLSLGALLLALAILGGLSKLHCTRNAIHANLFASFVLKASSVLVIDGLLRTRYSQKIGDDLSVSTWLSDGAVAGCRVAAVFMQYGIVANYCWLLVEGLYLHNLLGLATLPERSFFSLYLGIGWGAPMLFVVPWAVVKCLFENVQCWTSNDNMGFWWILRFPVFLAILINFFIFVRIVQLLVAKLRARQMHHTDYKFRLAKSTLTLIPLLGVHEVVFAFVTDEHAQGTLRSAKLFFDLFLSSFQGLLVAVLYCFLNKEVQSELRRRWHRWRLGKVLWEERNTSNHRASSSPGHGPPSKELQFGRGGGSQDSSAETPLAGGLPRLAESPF

SMILES	EC50 [nM]
CC(C)C[C@H](NC(=O)[C@H](Cc1ccc(O)cc1)NC(=O)[C@H](CCCCN)NC(=O)[C@H](CO)NC(=O)[C@H](Cc1ccc(O)cc1)NC(=O)[C@H](CC(=O)O)NC(=O)[C@H](CO)NC(=O)[C@@H](NC(=O)[C@H](Cc1ccccc1)NC(=O)[C@@H](NC(=O)CNC(=O)[C@H](Cc1c[nH]cn1)NC(=O)[C@H](CO)NC(=O)[C@@H](N)Cc1c[nH]cn1)[C@@H](C)O)[C@@H](C)O)C(=O)N[C@@H](CC(=O)O)C(=O)N[C@@H](CO)C(=O)N[C@@H](CCCCN)C(=O)N[C@@H](CCCNC(=N)N)C(=O)N[C@@H](C)C(=O)N[C@@H](CCC(N)=O)C(=O)N[C@@H](CCC(=O)O)C(=O)N[C@@H](Cc1ccccc1)C(=O)N[C@H](C(=O)N[C@@H](CCCCNC(=O)CC[C@H](NC(=O)CC[C@H](NC(=O)COCCOCCNC(=O)CC[C@H](NC(=O)CCCCCCCCCCCCCCCCC(=O)O)C(=O)O)C(=O)O)C(=O)O)C(=O)N[C@@H](Cc1c[nH]c2ccccc12)C(=O)N[C@@H](CC(C)C)C(=O)N[C@@H](CC(C)C)C(=O)N[C@@H](CO)C(=O)N[C@H](C(=O)O)[C@@H](C)O)C(C)C [Example 6, N^ε24-[(4S)-4-carboxy-4-[[(4S)-4-carboxy-4-[[2-[2-[2-[[(4S)-4-carboxy-4-(17-carboxyheptadecanoylamino)butanoyl]amino]ethoxy]ethoxy]acetyl]amino]butanoyl]amino]butanoyl]-[His^3,Lys^17,Glu^21,Lys^24,Leu^27,Ser^28]-Glucagon] (H-HSHGTFTSDYSKYLDSKRAQEFVK([γGlu-γGlu-AEEA-γGlu-C18 diacid])WLLST-OH)	0.077
CC(C)C[C@H](NC(=O)[C@H](CC(=O)O)NC(=O)[C@H](CC(C)C)NC(=O)[C@H](Cc1ccc(O)cc1)NC(=O)[C@H](CCCNC(=N)N)NC(=O)[C@H](CO)NC(=O)[C@H](Cc1ccc(O)cc1)NC(=O)[C@H](CC(=O)O)NC(=O)[C@H](CO)NC(=O)[C@@H](NC(=O)[C@H](Cc1ccccc1)NC(=O)[C@@H](NC(=O)CNC(=O)[C@H](CCC(N)=O)NC(=O)[C@H](CO)NC(=O)[C@@H](N)Cc1c[nH]cn1)[C@@H](C)O)[C@@H](C)O)C(=O)N[C@@H](CCCNC(=N)N)C(=O)N[C@@H](CCCNC(=N)N)C(=O)N[C@@H](C)C(=O)N[C@@H](CCC(N)=O)C(=O)N[C@@H](CC(=O)O)C(=O)N[C@@H](Cc1ccccc1)C(=O)N[C@H](C(=O)N[C@@H](CCCCNC(=O)CC[C@H](NC(=O)CC[C@H](NC(=O)COCCOCCNC(=O)COCCOCCNC(=O)CC[C@H](NC(=O)CCCCCCCCCCCCCCCCCCC(=O)O)C(=O)O)C(=O)O)C(=O)O)C(=O)N[C@@H](Cc1c[nH]c2ccccc12)C(=O)N[C@@H](CC(C)C)C(=O)N[C@@H](CC(C)C)C(=O)N[C@@H](CO)C(=O)N[C@H](C(=O)O)[C@@H](C)O)C(C)C [Example 26, N^ε24-[(4S)-4-carboxy-4-[[(4S)-4-carboxy-4-[[2-[2-[2-[[2-[2-[2-[[(4S)-4-carboxy-4-(19-carboxynonadecanoylamino)butanoyl]amino]ethoxy]ethoxy]acetyl]amino]ethoxy]ethoxy]acetyl]amino]butanoyl]amino]butanoyl]-[Arg^12,Leu^16,Lys^24,Leu^27,Ser^28]-Glucagon] (H-HSQGTFTSDYSRYLDLRRAQDFVK([γGlu-γGlu-AEEA-AEEA-γGlu-C20 diacid])WLLST-OH)	1.07
CC[C@H](C)[C@H](NC(=O)[C@H](CC(C)C)NC(=O)[C@H](CC(C)C)NC(=O)[C@H](Cc1c[nH]c2ccccc12)NC(=O)[C@H](CCCCNC(=O)CC[C@H](NC(=O)CC[C@H](NC(=O)COCCOCCNC(=O)COCCOCCNC(=O)CC[C@H](NC(=O)CCCCCCCCCCCCCCCCC(=O)O)C(=O)O)C(=O)O)C(=O)O)NC(=O)[C@@H](NC(=O)[C@H](Cc1ccccc1)NC(=O)[C@H](CC(=O)O)NC(=O)[C@H](CCC(N)=O)NC(=O)[C@H](C)NC(=O)[C@H](CCCNC(=N)N)NC(=O)[C@H](CCCNC(=N)N)NC(=O)[C@H](CC(C)C)NC(=O)[C@H](CC(=O)O)NC(=O)[C@H](CC(C)C)NC(=O)[C@H](Cc1ccc(O)cc1)NC(=O)[C@H](CCCNC(=N)N)NC(=O)[C@H](CO)NC(=O)[C@H](Cc1ccc(O)cc1)NC(=O)[C@H](CC(=O)O)NC(=O)[C@H](CO)NC(=O)[C@@H](NC(=O)[C@H](Cc1ccccc1)NC(=O)[C@@H](NC(=O)CNC(=O)[C@H](CCC(N)=O)NC(=O)[C@H](CO)NC(=O)[C@@H](N)Cc1c[nH]cn1)[C@@H](C)O)[C@@H](C)O)C(C)C)C(=O)N[C@H](C(=O)O)[C@@H](C)O [Example 18, N^ε24-[(4S)-4-carboxy-4-[[(4S)-4-carboxy-4-[[2-[2-[2-[[2-[2-[2-[[(4S)-4-carboxy-4-(17-carboxyheptadecanoylamino)butanoyl]amino]ethoxy]ethoxy]acetyl]amino]ethoxy]ethoxy]acetyl]amino]butanoyl]amino]butanoyl]-[Arg^12,Leu^16,Lys^24,Leu^27,Ile^28]-Glucagon] (H-HSQGTFTSDYSRYLDLRRAQDFVK([γGlu-γGlu-AEEA-AEEA-γGlu-C18 diacid])WLLIT-OH)	1.67
CC(C)C[C@H](NC(=O)[C@H](Cc1c[nH]c2ccccc12)NC(=O)[C@H](CCCCNC(=O)CC[C@H](NC(=O)CC[C@H](NC(=O)COCCOCCNC(=O)COCCOCCNC(=O)CC[C@H](NC(=O)CCCCCCCCCCCCCCCCC(=O)O)C(=O)O)C(=O)O)C(=O)O)NC(=O)[C@@H](NC(=O)[C@H](Cc1ccccc1)NC(=O)[C@H](CC(=O)O)NC(=O)[C@H](CCC(N)=O)NC(=O)[C@H](C)NC(=O)[C@H](CCCNC(=N)N)NC(=O)[C@H](CCCNC(=N)N)NC(=O)[C@@H](NC(=O)[C@H](CC(=O)O)NC(=O)[C@H](CC(C)C)NC(=O)[C@H](Cc1ccc(O)cc1)NC(=O)[C@H](CCCCN)NC(=O)[C@H](CO)NC(=O)[C@H](Cc1ccc(O)cc1)NC(=O)[C@H](CC(=O)O)NC(=O)[C@H](CO)NC(=O)[C@@H](NC(=O)[C@H](Cc1ccccc1)NC(=O)[C@@H](NC(=O)CNC(=O)[C@H](CCC(N)=O)NC(=O)[C@H](CO)NC(=O)[C@@H](N)Cc1c[nH]cn1)[C@@H](C)O)[C@@H](C)O)C(C)C)C(C)C)C(=O)N[C@@H](CC(C)C)C(=O)N[C@@H](CC(N)=O)C(=O)N[C@H](C(=O)O)[C@@H](C)O [Example 7, N^ε24-[(4S)-4-carboxy-4-[[(4S)-4-carboxy-4-[[2-[2-[2-[[2-[2-[2-[[(4S)-4-carboxy-4-(17-carboxyheptadecanoylamino)butanoyl]amino]ethoxy]ethoxy]acetyl]amino]ethoxy]ethoxy]acetyl]amino]butanoyl]amino]butanoyl]-[Val^16,Lys^24,Leu^27]-Glucagon]	0.081
CC(C)C[C@H](NC(=O)[C@H](Cc1ccc(O)cc1)NC(=O)[C@H](CCCCN)NC(=O)[C@H](CO)NC(=O)[C@H](Cc1ccc(O)cc1)NC(=O)[C@H](CC(=O)O)NC(=O)[C@H](CO)NC(=O)[C@@H](NC(=O)[C@H](Cc1ccccc1)NC(=O)[C@@H](NC(=O)CNC(=O)[C@H](Cc1c[nH]cn1)NC(=O)[C@H](CO)NC(=O)[C@@H](N)Cc1c[nH]cn1)[C@@H](C)O)[C@@H](C)O)C(=O)N[C@@H](CC(=O)O)C(=O)N[C@@H](CO)C(=O)N[C@@H](CCCNC(=N)N)C(=O)N[C@@H](CCCNC(=N)N)C(=O)N[C@@H](C)C(=O)N[C@@H](CCCCN)C(=O)N[C@@H](CC(=O)O)C(=O)N[C@@H](Cc1ccccc1)C(=O)N[C@H](C(=O)N[C@@H](CCCCNC(=O)CC[C@H](NC(=O)CC[C@H](NC(=O)COCCOCCNC(=O)COCCOCCNC(=O)CC[C@H](NC(=O)CCCCCCCCCCCCCCCCC(=O)O)C(=O)O)C(=O)O)C(=O)O)C(=O)N[C@@H](Cc1c[nH]c2ccccc12)C(=O)N[C@@H](CC(C)C)C(=O)N[C@@H](CC(C)C)C(=O)N[C@@H](CO)C(=O)N[C@H](C(=O)O)[C@@H](C)O)C(C)C [Example 3, N^ε24-[(4S)-4-carboxy-4-[[(4S)-4-carboxy-4-[[2-[2-[2-[[2-[2-[2-[[(4S)-4-carboxy-4-(17-carboxyheptadecanoylamino)butanoyl]amino]ethoxy]ethoxy]acetyl]amino]ethoxy]ethoxy]acetyl]amino]butanoyl]amino]butanoyl]-[His^3,Lys^20,Lys^24,Leu^27,Ser^28]-Glucagon] (H-HSHGTFTSDYSKYLDSRRAKDFVK([γGlu-γGlu-AEEA-AEEA-γGlu-C18 diacid])WLLST-OH)	0.249
CC(C)C[C@H](NC(=O)[C@H](Cc1c[nH]c2ccccc12)NC(=O)[C@H](CCCCNC(=O)CC[C@H](NC(=O)CC[C@H](NC(=O)COCCOCCNC(=O)COCCOCCNC(=O)CC[C@H](NC(=O)CCCCCCCCCCCCCCC(=O)O)C(=O)O)C(=O)O)C(=O)O)NC(=O)[C@@H](NC(=O)[C@H](Cc1ccccc1)NC(=O)[C@H](CC(=O)O)NC(=O)[C@H](CCC(N)=O)NC(=O)[C@H](C)NC(=O)[C@H](CCCNC(=N)N)NC(=O)[C@H](CCCNC(=N)N)NC(=O)[C@@H](NC(=O)[C@H](CC(=O)O)NC(=O)[C@H](CC(C)C)NC(=O)[C@H](Cc1ccc(O)cc1)NC(=O)[C@H](CCCNC(=N)N)NC(=O)[C@H](CO)NC(=O)[C@H](Cc1ccc(O)cc1)NC(=O)[C@H](CC(=O)O)NC(=O)[C@H](CO)NC(=O)[C@@H](NC(=O)[C@H](Cc1ccccc1)NC(=O)[C@@H](NC(=O)CNC(=O)[C@H](CCC(N)=O)NC(=O)[C@H](CO)NC(=O)[C@@H](N)Cc1c[nH]cn1)[C@@H](C)O)[C@@H](C)O)C(C)C)C(C)C)C(=O)N[C@@H](CC(C)C)C(=O)N[C@@H](CO)C(=O)N[C@H](C(=O)O)[C@@H](C)O [Example 97, N^ε24-[(4S)-4-carboxy-4-[[(4S)-4-carboxy-4-[[2-[2-[2-[[2-[2-[2-[[(4S)-4-carboxy-4-(15-carboxypentadecanoylamino)butanoyl]amino]ethoxy]ethoxy]acetyl]amino]ethoxy]ethoxy]acetyl]amino]butanoyl]amino]butanoyl]-[Arg12,Val16,Lys24,Leu27,Ser28]-Glucagon] (H-HSQGTFTSDYSRYLDVRRAQDFVK([γGlu-γGlu-AEEA-AEEA-γGlu-C16 diacid])WLLST-OH; N-terminus and C-terminus assumed)	0.026
